Experiments:
[1] = system: normal NK cells expanded with K562-aAPC; assay: drug sensitivity score (DSS) (DSS units); higher = more sensitive; extreme values may be limits of the assay; conditions: 72 h; IL-2 2.5 ng/mL
Protocol: (§1)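 Drug sensitivity and resistance testing on K562-aAPC-expanded normal NK cells: 5 concentrations (10-fold steps over a 10,000-fold range), 72 h at 37 °C, viability by CellTiter-Glo normalised to DMSO and benzethonium chloride controls; DSS from the fitted curve.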

[2] = system: NK-YS (IL-2 2.5 ng/mL); assay: as above; conditions: 72 h
[3] = system: YT (IL-2 2.5 ng/mL); assay: as above; conditions: 72 h
[4] = system: KAI3 (IL-2 2.5 ng/mL); assay: as above; conditions: 72 h
[5] = system: NKL (IL-2 2.5 ng/mL); assay: as above; conditions: 72 h
[6] = system: normal primary NK cells, pool 1 (3 donors) (IL-2 2.5 ng/mL); assay: as above; conditions: 72 h
[7] = system: DERL-7 (IL-2 2.5 ng/mL); assay: as above; conditions: 72 h
[8] = system: normal primary NK cells, pool 3 (3 donors) (IL-2 2.5 ng/mL); assay: as above; conditions: 72 h
[9] = system: NK-92 (IL-2 2.5 ng/mL); assay: as above; conditions: 72 h
[10] = system: SNK-6 (IL-2 2.5 ng/mL); assay: as above; conditions: 72 h
[11] = system: normal primary NK cells, pool 2 (3 donors) (IL-2 2.5 ng/mL); assay: as above; conditions: 72 h
[12] = system: normal primary NK cells, pool 1 (3 donors), resting (IL-2 0 ng/mL); assay: as above; conditions: 72 h
[13] = system: KHYG-1 (IL-2 2.5 ng/mL); assay: as above; conditions: 72 h
[14] = system: IMC-1 (IL-2 20 ng/mL); assay: as above; conditions: 72 h
[15] = system: NK-YS (IL-2 2.5 ng/mL); assay: percent inhibition of viability; higher = more inhibition; conditions: 72 h
[16] = system: YT (IL-2 2.5 ng/mL); assay: as above; conditions: 72 h
[17] = system: KAI3 (IL-2 2.5 ng/mL); assay: as above; conditions: 72 h
[18] = system: NKL (IL-2 2.5 ng/mL); assay: as above; conditions: 72 h
[19] = system: normal primary NK cells, pool 1 (3 donors) (IL-2 2.5 ng/mL); assay: as above; conditions: 72 h
[20] = system: DERL-7 (IL-2 2.5 ng/mL); assay: as above; conditions: 72 h
[21] = system: normal primary NK cells, pool 3 (3 donors) (IL-2 2.5 ng/mL); assay: as above; conditions: 72 h
[22] = system: NK-92 (IL-2 2.5 ng/mL); assay: as above; conditions: 72 h
[23] = system: SNK-6 (IL-2 2.5 ng/mL); assay: as above; conditions: 72 h
[24] = system: normal primary NK cells, pool 2 (3 donors) (IL-2 2.5 ng/mL); assay: as above; conditions: 72 h
[25] = system: normal primary NK cells, pool 1 (3 donors), resting (IL-2 0 ng/mL); assay: as above; conditions: 72 h
[26] = system: KHYG-1 (IL-2 2.5 ng/mL); assay: as above; conditions: 72 h
[27] = system: IMC-1 (IL-2 20 ng/mL); assay: as above; conditions: 72 h
[28] = system: normal NK cells expanded with K562-aAPC; assay: as above; conditions: 72 h, IL-2 2.5 ng/mL
Protocol: as §1

Cn1cnc2c(F)c(Nc3ccc(Br)cc3F)c(C(=O)NOCCO)cc21 [Binimetinib] (max concentration tested 1000 nM)
drug sensitivity score [1]: 0.91
drug sensitivity score [2]: 0.72
drug sensitivity score [3]: 0.31
drug sensitivity score [4]: 4.5
drug sensitivity score [5]: 10.4
drug sensitivity score [6]: 4.75
drug sensitivity score [7]: 3.71
drug sensitivity score [8]: 0
drug sensitivity score [9]: 0
drug sensitivity score [10]: 0
drug sensitivity score [11]: 0
drug sensitivity score [12]: 1.99
drug sensitivity score [13]: 5.14
drug sensitivity score [14]: 0
percent inhibition of viability ([15]; 0.1 nM): -5.25%
percent inhibition of viability ([15]; 1 nM): -2.09%
percent inhibition of viability ([15]; 10 nM): -0.43%
percent inhibition of viability ([15]; 100 nM): 5.51%
percent inhibition of viability ([15]; 1000 nM): 15.3%
percent inhibition of viability ([16]; 0.1 nM): -6.43%
percent inhibition of viability ([16]; 1 nM): -3.81%
percent inhibition of viability ([16]; 10 nM): -0.11%
percent inhibition of viability ([16]; 100 nM): 2.57%
percent inhibition of viability ([16]; 1000 nM): 13.4%
percent inhibition of viability ([17]; 0.1 nM): -1.37%
percent inhibition of viability ([17]; 1 nM): 4.03%
percent inhibition of viability ([17]; 10 nM): 7.85%
percent inhibition of viability ([17]; 100 nM): 24.3%
percent inhibition of viability ([17]; 1000 nM): 29.6%
percent inhibition of viability ([18]; 0.1 nM): -7.91%
percent inhibition of viability ([18]; 1 nM): -8.09%
percent inhibition of viability ([18]; 10 nM): 19.3%
percent inhibition of viability ([18]; 100 nM): 43.6%
percent inhibition of viability ([18]; 1000 nM): 53.2%
percent inhibition of viability ([19]; 0.1 nM): -6.5%
percent inhibition of viability ([19]; 1 nM): 12.6%
percent inhibition of viability ([19]; 10 nM): 14.8%
percent inhibition of viability ([19]; 100 nM): 18.1%
percent inhibition of viability ([19]; 1000 nM): 22.7%
percent inhibition of viability ([20]; 0.1 nM): 1.19%
percent inhibition of viability ([20]; 1 nM): 7.3%
percent inhibition of viability ([20]; 10 nM): 10.5%
percent inhibition of viability ([20]; 100 nM): 16.3%
percent inhibition of viability ([20]; 1000 nM): 33.7%
percent inhibition of viability ([21]; 0.1 nM): -5.24%
percent inhibition of viability ([21]; 1 nM): 2.75%
percent inhibition of viability ([21]; 10 nM): -0.18%
percent inhibition of viability ([21]; 100 nM): 2.58%
percent inhibition of viability ([21]; 1000 nM): 2.52%
percent inhibition of viability ([22]; 0.1 nM): -10.1%
percent inhibition of viability ([22]; 1 nM): -5.18%
percent inhibition of viability ([22]; 10 nM): -13.1%
percent inhibition of viability ([22]; 100 nM): 0.36%
percent inhibition of viability ([22]; 1000 nM): -1.28%
percent inhibition of viability ([23]; 0.1 nM): -19.8%
percent inhibition of viability ([23]; 1 nM): -4.3%
percent inhibition of viability ([23]; 10 nM): -10.5%
percent inhibition of viability ([23]; 100 nM): -10.4%
percent inhibition of viability ([23]; 1000 nM): -8.36%
percent inhibition of viability ([24]; 0.1 nM): -7.84%
percent inhibition of viability ([24]; 1 nM): -6.09%
percent inhibition of viability ([24]; 10 nM): 8.89%
percent inhibition of viability ([24]; 100 nM): -1.5%
percent inhibition of viability ([24]; 1000 nM): 11%
percent inhibition of viability ([25]; 0.1 nM): -4.5%
percent inhibition of viability ([25]; 1 nM): 21.4%
percent inhibition of viability ([25]; 10 nM): 12.5%
percent inhibition of viability ([25]; 100 nM): 9.21%
percent inhibition of viability ([25]; 1000 nM): 17.1%
percent inhibition of viability ([26]; 0.1 nM): -8.34%
percent inhibition of viability ([26]; 1 nM): -1.29%
percent inhibition of viability ([26]; 10 nM): 0.25%
percent inhibition of viability ([26]; 100 nM): 24.1%
percent inhibition of viability ([26]; 1000 nM): 42.7%
percent inhibition of viability ([27]; 0.1 nM): -6%
percent inhibition of viability ([27]; 1 nM): -0.56%
percent inhibition of viability ([27]; 10 nM): -0.39%
percent inhibition of viability ([27]; 100 nM): 4.96%
percent inhibition of viability ([27]; 1000 nM): 6.74%
percent inhibition of viability ([28]; 0.1 nM): 1.57%
percent inhibition of viability ([28]; 1 nM): -5.49%
percent inhibition of viability ([28]; 10 nM): -0.07%
percent inhibition of viability ([28]; 100 nM): 6.65%
percent inhibition of viability ([28]; 1000 nM): 16.2%

C[C@@]1(C(=O)Nc2ccc(F)nc2)CCCN1c1nc(Nc2cc(C3CC3)n[nH]2)c2cccn2n1 (max concentration tested 10000 nM)
drug sensitivity score [1]: 7.77
drug sensitivity score [2]: 12.7
drug sensitivity score [3]: 5.62
drug sensitivity score [4]: 4.58
drug sensitivity score [5]: 0
drug sensitivity score [6]: 0.16
drug sensitivity score [7]: 13.9
drug sensitivity score [8]: 0
drug sensitivity score [9]: 7.43
drug sensitivity score [10]: 10.8
drug sensitivity score [11]: 0
drug sensitivity score [12]: 2.52
drug sensitivity score [13]: 7.7
drug sensitivity score [14]: 4.66
percent inhibition of viability ([15]; 1 nM): -3.69%
percent inhibition of viability ([15]; 10 nM): -4.66%
percent inhibition of viability ([15]; 100 nM): 4.73%
percent inhibition of viability ([15]; 1000 nM): 65.5%
percent inhibition of viability ([15]; 10000 nM): 77.1%
percent inhibition of viability ([16]; 1 nM): 3.08%
percent inhibition of viability ([16]; 10 nM): 1.72%
percent inhibition of viability ([16]; 100 nM): 7.96%
percent inhibition of viability ([16]; 1000 nM): 25%
percent inhibition of viability ([16]; 10000 nM): 51.8%
percent inhibition of viability ([17]; 1 nM): -1.42%
percent inhibition of viability ([17]; 10 nM): -2.58%
percent inhibition of viability ([17]; 100 nM): 4.51%
percent inhibition of viability ([17]; 1000 nM): 22.4%
percent inhibition of viability ([17]; 10000 nM): 41.7%
percent inhibition of viability ([18]; 1 nM): -16.6%
percent inhibition of viability ([18]; 10 nM): -4.3%
percent inhibition of viability ([18]; 100 nM): -14.1%
percent inhibition of viability ([18]; 1000 nM): 1.87%
percent inhibition of viability ([18]; 10000 nM): -5.96%
percent inhibition of viability ([19]; 1 nM): -6.95%
percent inhibition of viability ([19]; 10 nM): -10%
percent inhibition of viability ([19]; 100 nM): 3.68%
percent inhibition of viability ([19]; 1000 nM): 2.67%
percent inhibition of viability ([19]; 10000 nM): 12.4%
percent inhibition of viability ([20]; 1 nM): -1.6%
percent inhibition of viability ([20]; 10 nM): 5.82%
percent inhibition of viability ([20]; 100 nM): 2.68%
percent inhibition of viability ([20]; 1000 nM): 74.3%
percent inhibition of viability ([20]; 10000 nM): 60.1%
percent inhibition of viability ([21]; 1 nM): -3.23%
percent inhibition of viability ([21]; 10 nM): -1.9%
percent inhibition of viability ([21]; 100 nM): 0.53%
percent inhibition of viability ([21]; 1000 nM): 7.47%
percent inhibition of viability ([21]; 10000 nM): -2.1%
percent inhibition of viability ([22]; 1 nM): 1.84%
percent inhibition of viability ([22]; 10 nM): 11%
percent inhibition of viability ([22]; 100 nM): 7.85%
percent inhibition of viability ([22]; 1000 nM): 33.8%
percent inhibition of viability ([22]; 10000 nM): 57.6%
percent inhibition of viability ([23]; 1 nM): 2.3%
percent inhibition of viability ([23]; 10 nM): -11.9%
percent inhibition of viability ([23]; 100 nM): -15.8%
percent inhibition of viability ([23]; 1000 nM): 57.8%
percent inhibition of viability ([23]; 10000 nM): 74.8%
percent inhibition of viability ([24]; 1 nM): -2.95%
percent inhibition of viability ([24]; 10 nM): -4.83%
percent inhibition of viability ([24]; 100 nM): -5.48%
percent inhibition of viability ([24]; 1000 nM): -1.42%
percent inhibition of viability ([24]; 10000 nM): 10.7%
percent inhibition of viability ([25]; 1 nM): -9%
percent inhibition of viability ([25]; 10 nM): -4.43%
percent inhibition of viability ([25]; 100 nM): 15.4%
percent inhibition of viability ([25]; 1000 nM): -2.47%
percent inhibition of viability ([25]; 10000 nM): 51.6%
percent inhibition of viability ([26]; 1 nM): -3.05%
percent inhibition of viability ([26]; 10 nM): -5.44%
percent inhibition of viability ([26]; 100 nM): 1.8%
percent inhibition of viability ([26]; 1000 nM): 30.1%
percent inhibition of viability ([26]; 10000 nM): 70.8%
percent inhibition of viability ([27]; 1 nM): 1.89%
percent inhibition of viability ([27]; 10 nM): -6.3%
percent inhibition of viability ([27]; 100 nM): 0.07%
percent inhibition of viability ([27]; 1000 nM): 3.22%
percent inhibition of viability ([27]; 10000 nM): 76.3%
percent inhibition of viability ([28]; 1 nM): -9.12%
percent inhibition of viability ([28]; 10 nM): -3.4%
percent inhibition of viability ([28]; 100 nM): -6.53%
percent inhibition of viability ([28]; 1000 nM): 45.5%
percent inhibition of viability ([28]; 10000 nM): 42.2%
